According to publication PMC6576746, “Rational discovery of dual-indication multi-target PDE/Kinase inhibitor for precision anti-cancer therapy using structural systems pharmacology” (PLoS Computational Biology, 2019):

Legend:
[1] = target: T1, FLT3 (Homo sapiens, UniProt P36888); assay: KinomeScan competition binding assay; conditions: 10 μM levosimendan
T1 construct: DiscoverX KinomeScan panel kinase

[2] = tested on: NCI-H596; assay: cells; parameters: species or system panel of human cancer cell lines; Eurofins OncoPanel proliferation; nuclei count by high-content fluorescence imaging, 10-point dose response; conditions: Homo sapiens, NCI-H596, 72 h, cell count, 3 days
How it was run: (§1)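 Ten half-log concentrations from 100 μM (0.1% DMSO max) applied one day post-seeding, 3-day exposure at 37°C; untreated time-zero plate for GI50. Readout is nuclear cell count by automated fluorescence imaging, giving EC50, IC50, GI50 and 0–10 activity area.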

[3] = tested on: A172; assay: cells; parameters: species or system panel of human cancer cell lines; Eurofins OncoPanel proliferation; nuclei count by high-content fluorescence imaging, 10-point dose response; conditions: Homo sapiens, A 172, 72 h, cell count, 3 days
How it was run: as §1

[4] = tested on: SUP-T1; assay: cells; parameters: species or system panel of human cancer cell lines; Eurofins OncoPanel proliferation; nuclei count by high-content fluorescence imaging, 10-point dose response; conditions: Homo sapiens, SUP-T1, 72 h, cell count, 3 days
How it was run: as §1

[5] = tested on: VA-ES-BJ; assay: cells; parameters: species or system panel of human cancer cell lines; Eurofins OncoPanel proliferation; nuclei count by high-content fluorescence imaging, 10-point dose response; conditions: 72 h, cell count, 3 days
How it was run: as §1

[6] = target: T2, MYLK4 (Homo sapiens, UniProt Q86YV6); assay: KinomeScan competition binding assay; parameters: DiscoverX KinomeScan panel kinase; conditions: 100 μM levosimendan
T2 sequence (Q86YV6 1-388): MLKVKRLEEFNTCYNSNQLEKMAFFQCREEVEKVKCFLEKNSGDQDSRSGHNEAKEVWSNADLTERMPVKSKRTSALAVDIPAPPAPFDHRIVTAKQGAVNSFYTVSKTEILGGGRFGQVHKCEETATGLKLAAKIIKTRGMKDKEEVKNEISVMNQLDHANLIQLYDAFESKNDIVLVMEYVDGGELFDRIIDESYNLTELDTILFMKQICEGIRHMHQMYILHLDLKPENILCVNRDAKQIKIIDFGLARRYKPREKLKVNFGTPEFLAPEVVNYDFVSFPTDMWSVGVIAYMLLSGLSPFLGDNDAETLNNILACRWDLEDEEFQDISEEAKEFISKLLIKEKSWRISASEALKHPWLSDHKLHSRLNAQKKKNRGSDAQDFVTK

[7] = target: T3, GAK (Homo sapiens, UniProt O14976); assay: KinomeScan competition binding assay; conditions: 10 μM levosimendan
T3 construct: DiscoverX KinomeScan panel kinase
T3 sequence (O14976 2-1311): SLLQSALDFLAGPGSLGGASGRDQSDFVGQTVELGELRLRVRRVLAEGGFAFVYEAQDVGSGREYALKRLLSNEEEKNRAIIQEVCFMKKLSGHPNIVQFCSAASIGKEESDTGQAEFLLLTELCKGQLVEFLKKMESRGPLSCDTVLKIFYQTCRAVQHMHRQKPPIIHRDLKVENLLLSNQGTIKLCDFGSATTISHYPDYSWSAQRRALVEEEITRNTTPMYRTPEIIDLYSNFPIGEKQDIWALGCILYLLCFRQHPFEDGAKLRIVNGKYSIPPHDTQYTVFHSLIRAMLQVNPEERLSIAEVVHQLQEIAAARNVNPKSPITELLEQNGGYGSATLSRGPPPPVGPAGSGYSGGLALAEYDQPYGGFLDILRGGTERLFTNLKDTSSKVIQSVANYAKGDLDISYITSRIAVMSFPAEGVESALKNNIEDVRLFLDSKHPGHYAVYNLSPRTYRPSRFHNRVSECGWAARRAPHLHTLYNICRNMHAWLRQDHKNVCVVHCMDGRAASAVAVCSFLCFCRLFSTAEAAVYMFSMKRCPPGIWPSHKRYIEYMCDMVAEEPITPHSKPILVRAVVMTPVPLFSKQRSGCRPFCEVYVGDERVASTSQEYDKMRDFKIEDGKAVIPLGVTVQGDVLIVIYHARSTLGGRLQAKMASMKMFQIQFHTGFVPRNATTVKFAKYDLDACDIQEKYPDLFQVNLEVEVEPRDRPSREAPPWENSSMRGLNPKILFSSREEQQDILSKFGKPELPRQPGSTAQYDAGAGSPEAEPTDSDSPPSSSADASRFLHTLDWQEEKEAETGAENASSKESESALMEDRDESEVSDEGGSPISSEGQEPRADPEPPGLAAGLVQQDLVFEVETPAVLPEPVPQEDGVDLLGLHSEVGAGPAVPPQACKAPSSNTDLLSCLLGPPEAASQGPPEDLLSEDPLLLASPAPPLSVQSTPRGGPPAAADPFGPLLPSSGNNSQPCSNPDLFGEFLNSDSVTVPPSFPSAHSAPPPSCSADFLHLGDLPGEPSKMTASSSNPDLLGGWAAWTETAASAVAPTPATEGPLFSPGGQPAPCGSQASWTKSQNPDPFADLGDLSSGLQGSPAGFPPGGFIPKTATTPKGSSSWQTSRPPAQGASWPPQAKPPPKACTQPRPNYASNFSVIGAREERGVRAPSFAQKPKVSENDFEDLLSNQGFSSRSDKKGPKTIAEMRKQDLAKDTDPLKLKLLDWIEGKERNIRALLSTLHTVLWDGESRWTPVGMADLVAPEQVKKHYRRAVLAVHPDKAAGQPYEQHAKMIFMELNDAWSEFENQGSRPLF

[8] = 50% of maximum possible response

T1 sequence (P36888 27-993): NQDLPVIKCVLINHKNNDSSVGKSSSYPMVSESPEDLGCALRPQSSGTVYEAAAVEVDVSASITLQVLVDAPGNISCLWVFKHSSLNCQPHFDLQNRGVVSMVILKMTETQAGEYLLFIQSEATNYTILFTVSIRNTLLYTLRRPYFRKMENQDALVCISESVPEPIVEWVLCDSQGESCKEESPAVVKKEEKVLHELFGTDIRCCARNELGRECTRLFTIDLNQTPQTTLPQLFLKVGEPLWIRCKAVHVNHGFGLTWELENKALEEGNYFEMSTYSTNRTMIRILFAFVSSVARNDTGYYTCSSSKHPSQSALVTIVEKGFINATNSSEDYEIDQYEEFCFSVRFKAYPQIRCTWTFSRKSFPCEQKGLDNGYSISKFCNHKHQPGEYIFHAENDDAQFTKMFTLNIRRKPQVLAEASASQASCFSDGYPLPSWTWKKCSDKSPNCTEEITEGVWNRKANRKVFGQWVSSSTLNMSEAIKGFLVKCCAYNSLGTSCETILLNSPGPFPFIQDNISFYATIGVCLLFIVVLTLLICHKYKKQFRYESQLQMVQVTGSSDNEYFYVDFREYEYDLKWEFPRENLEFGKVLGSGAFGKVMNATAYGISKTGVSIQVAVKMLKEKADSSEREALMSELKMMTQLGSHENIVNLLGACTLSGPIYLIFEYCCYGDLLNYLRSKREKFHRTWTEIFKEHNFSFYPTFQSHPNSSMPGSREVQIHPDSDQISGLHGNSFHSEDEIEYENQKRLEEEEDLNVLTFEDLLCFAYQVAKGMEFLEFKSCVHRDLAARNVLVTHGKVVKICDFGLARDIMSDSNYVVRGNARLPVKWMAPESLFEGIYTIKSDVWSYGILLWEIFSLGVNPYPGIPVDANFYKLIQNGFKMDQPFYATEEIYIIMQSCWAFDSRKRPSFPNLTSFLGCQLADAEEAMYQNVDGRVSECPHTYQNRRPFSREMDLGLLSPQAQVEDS

percentage control at 10 μM [1]: < 30.0%
IC50 [2, 8]: > 100 µM
GI50 ([2]; corrected for time zero): > 100 µM
EC50 ([2]; curve inflection point): 55.5 µM
percentage control at 10 μM [7]: < 30.0%
SMILES: C[C@@H]1CC(=O)NN=C1c1ccc(NN=C(C#N)C#N)cc1 [levosimendan]
IC50 [3, 8]: 55.8 µM
GI50 ([3]; corrected for time zero): 44.8 µM
EC50 ([3]; curve inflection point): 55.8 µM
IC50 [4, 8]: 15.6 µM
GI50 ([4]; corrected for time zero): 11 µM
EC50 ([4]; curve inflection point): 15.6 µM
IC50 [5, 8]: 51.7 µM
GI50 ([5]; corrected for time zero): 42.4 µM
EC50 ([5]; curve inflection point): 51.7 µM
percentage control at 100 μM [6]: two have intermediate binding affinities (MYLK4 and CAMK2)
